Where “and” joins values, the source holds several entries; their conditions need not be identical. Equal values may be shown once. Read-outs that look alike come from different tables or passages of the source. [nps] = N3'→P5' thiophosphoramidate linkage; {Palm} = palmitoyl lipid
Tests used:
patients with LR-MDS = assay: Patient-reported fatigue (FACIT Fatigue Scale); format: in vivo, human; details: PRO population
Description: To measure patient-reported fatigue, data were collected using the validated Functional Assessment of Chronic Illness Therapy (FACIT) Scale and analyzed in all randomized patients with available fatigue data at baseline (PRO population). The FACIT is a 13-item questionnaire measuring fatigue during daily activity. Proportion of sustained, meaningful deterioration/improvement was defined as percentage of pts with ≥3-point decrease/increase on the FACIT Fatigue Scale (0-52) for ≥2 consecutive treatment cycles. Additionally, time-to-deterioration/improvement was estimated by Kaplan-Meier analysis. Sensitivity analyses were performed in the intent-to-treat population and with alternate definitions of meaningful deterioration.
Exploratory End Point Patient-Reported Fatigue: Proportion of sustained meaningful deterioration/improvement was defined as percentage of patients with ≥3-point decrease/increase on the Functional Assessment of Chronic Illness Therapy (FACIT) Fatigue Scale (0-52) for ≥2 consecutive treatment cycles.
Meaningful improvement in FACIT Fatigue: Psychometric supportive evidence for the use of the FACIT Fatigue in the context of LR-MDS confirms the previously published threshold of a 3-point change for meaningful within-patient change for the FACIT Fatigue.

[1] = tested on: RBC transfusion-dependent patients with IPSS low or intermediate-1 risk MDS
[2] = tested on: patients with baseline cytogenetic abnormality; assay: Phase 3 trial: cytogenetic response per IWG 2006; format: in vivo, human
Description: The primary end point was rate of RBC-TI for 8 consecutive weeks or longer. Key secondary end points included rate of 24-week TI, duration of TI, and the rate of hematologic response (hematologic improvement-erythroid [HI-E], based on modified International Working Group [IWG] 2006 criteria, and HI-E per revised IWG 2018). Additional secondary end points included relative change in number of RBC transfusions received by patients, relative change in hemoglobin, and safety. The changes in mutational status and in patient-reported fatigue over time (assessed by the Functional Assessment of Chronic Illness Therapy [FACIT] Fatigue Scale) were exploratory end points. Subgroup analyses were performed including baseline presence or absence of RS, prior RBC transfusion burden (≥4 to ≤6 or >6 RBC units/8-weeks during a 16-week period prior to randomization), and low or intermediate-1 IPSS risk categories. Subgroup analyses were also performed, including baseline mutation status as well as telomerase activity (TA), telomere lengths (TL), and human telomerase reverse transcriptase (hTERT) levels. Peripheral blood hematology, bone marrow evaluation, mutation assessment, and cytogenetic evaluation were performed centrally and responses assessed by an independent review committee (IRC). Rate of 1-year RBC-TI was reported as a post hoc analysis.
As noted above, patients with heavily RBC-TD-ESA relapsed/refractory or ineligible non-del(5q) LR-MDS naive to lenalidomide and hypomethylating agents (len/HMA) received 2-hr infusion of imetelstat 7.5 mg/kg or placebo every 4 weeks. An independent review committee assessed abnormal cytogenetic profiles of bone marrow samples taken pre- and every 24 weeks post-treatment to assess cytogenetic response of complete or partial remission. Of the 178 randomized patients, 22.0% in the imetelstat group and 21.7% in the placebo group had baseline cytogenetic abnormalities and post-treatment samples.

[3] = by lab assessment, listed as imetelstat
[4] = 26 patients with baseline abnormality
[5] = ≥1-year TI responders with baseline abnormality (7)

## Imetelstat: first-in-class telomerase inhibitor; synthetic lipid-conjugated 13-mer oligonucleotide N3′→P5′-thiophosphoramidate (TAGGGTTAGACAA; all [nps], 5' {Palm}, sugars by position and methylation of C not given here)
Patients with LR-MDS
  HR, time to first sustained meaningful improvement in fatigue vs placebo: 1.34
  Median time to first sustained, meaningful improvement in fatigue: 28.3 weeks
Patients with LR-MDS; 118 patients
  Patients with any episode of sustained, meaningful deterioration in fatigue: 43.2%
  Patients with sustained, meaningful improvement in fatigue: 50.0%
[1]; Cycle 10-12 (N=53)
  Thrombocytopenia, maximum postbaseline CTCAE Grade 4: 0 No. of Patients
[1]; N=118
  ALP abnormality, Grade 3-4: 0 No. of patients
  Serious TEAE: Abscess limb: 0 No.
[1]; N=118, listed as imetelstat
  Patients with any dose reduction: 49%
  Withdrawal TEAE: Neutropenia: 5%
  Withdrawal TEAE: Thrombocytopenia: 3%
[1]; TEAE, N=118
  Asthenia, Grade 3-4: 0 No. of patients
  Constipation, Grade 3-4: 0 No. of patients
  Edema peripheral, Grade 3-4: 0 No. of patients
[1]; by lab assessment
  G3/4 Neutropenia events: 279 no. of events
  G3/4 Neutropenia median duration: 1.86 Weeks
  G3/4 Thrombocytopenia events: 212 no. of events
  G3/4 Thrombocytopenia median duration: 1.43 Weeks
[1]; [3]
  G3/4 Neutropenia median duration: 1.9 Weeks
  G3/4 Thrombocytopenia median duration: 1.4 Weeks
[1]; in vivo
  Dose delays due to neutropenia: 50.8%
  Dose delays due to thrombocytopenia: 46.6%
  Dose reductions due to neutropenia: 33.1%
  Dose reductions due to thrombocytopenia: 22.9%
  Patients with cytopenias reversible to Grade ≤2 within 4 weeks: more than 80%
[1]; n=118
  Discontinued: Progressive disease: 6%
[1]; patients with TI ≥1 year
  Grade 3-4 neutropenia: 95%
  Grade 3-4 neutropenia, patients: 20 patients
  Grade 3-4 thrombocytopenia: 67%
  Grade 3-4 thrombocytopenia, patients: 14 patients
  Grade 3/4 neutropenia events, mean (SD) duration: 1.78 (1.58) weeks
  Grade 3/4 neutropenia reversible to grade ≤2 within 4 weeks: 81%
  Grade 3/4 thrombocytopenia events, mean (SD) duration: 2.25 (2.48) weeks
  Grade 3/4 thrombocytopenia reversible to grade ≤2 within 4 weeks: 89%
[1]; resolved to ≤ Grade 2
  G3/4 Neutropenia resolved <4 weeks: 81%
  G3/4 Thrombocytopenia resolved <4 weeks: 86%
[2]; [4]
  Cytogenetic CR or PR: (35) %
  Cytogenetic CR or PR, patients: 9 N
  Cytogenetic complete response (CR): (19) %
  Cytogenetic complete response (CR), patients: 5 N
  Cytogenetic partial response (PR): (15) %
  Cytogenetic partial response (PR), patients: 4 N
  Cytogenetic response not evaluable: (46) %
  Cytogenetic response not evaluable, patients: 12 N
  Does not meet cytogenetic CR or PR criteria: (19) %
  Does not meet cytogenetic CR or PR criteria, patients: 5 N
[2]; 26 patients with baseline abnormality, listed as imetelstat
  Cytogenetic CR or PR: 35% and 34.6%
[2]; in vivo
  Cytogenetic CR or PR, % difference vs placebo: 19% (−16, 44)
[2]; [5]
  Did not meet the response criteria, patients: 1 patient
  cCR: 57%
  cCR, patients: 4 patients
  cPR: 29%
  cPR, patients: 2 patients

From US20240285773A1, “METHODS OF TREATING MYELODYSPLASTIC SYNDROME AND MONITORING THE TREATMENT” (Geron Corporation, priority 2023, published 2024)
